Assay results reported in patent US8513274B2, “Ellipticine compounds for treating obesity” (Etzem, Inc., priority 2009, dated 2013).
Structures can show the parent of a compound that is named as a salt.

Experiment: Reduction of body weight with ellipticine hydrochloride in mice
Type: in vivo
Settings: initial body weight 30 g, every weekday
Protocol: In order to determine the effect of ellipticine and ellipticine derivatives in reducing body weight, ellipticine hydrochloride was administered to mice every weekday for 4 weeks (30 days) and their body weights tracked. Ellipticine hydrochloride was solubilized in saline and administered via intraperitoneal injection. Animals were weighed weekly.
Mice (6 per group) were divided into seven groups and given one of the following treatments: • 1. 10 mg ellipticine hydrochloride/kg body weight (Low) • 2. 20 mg ellipticine hydrochloride/kg body weight (Mid) • 3. 30 mg ellipticine hydrochloride/kg body weight (High) • 4. Saline • 5. 3 mg/kg body weight (Positive control 2) • 6. 5 mg/kg body weight (Positive control low) • 7. 10 mg/kg body weight (Positive control high)

Cc1c2ccncc2c(C)c2c1[nH]c1ccccc12 [ellipticine hydrochloride]
body weight loss (decrease of body weight) (10 mg/kg (Low) intraperitoneal in saline, end of 4 weeks): more than 18%
body weight loss (20 mg/kg (Mid) intraperitoneal in saline, end of week 3, animals then sacrificed): more than 33%
reduction in body weight (30 mg/kg (High) intraperitoneal in saline, end of week 2, animals then sacrificed): 28%
